Article PMC3001897, “High-Throughput Chemical Screen Identifies a Novel Potent Modulator of Cellular Circadian Rhythms and Reveals CKIα as a Clock Regulatory Kinase” (PLoS Biology, 2010)

How the values were obtained:
[1] = test system: protein kinases (CKIδ, CKIα, ERK2, CDK7, p38α; ERK1); test: Affinity chromatography with compound 3 resin and U2OS cell lysate; assay type: binding, human
Description: U2OS cells kept in confluence (2×10^8 cells) were collected with ice-cold PBS and homogenized by using Dounce homogenizer in 5 ml of lysis buffer (25 mM MOPS, 15 mM EGTA, 15 mM MgCl2, 1 mM DTT, 60 mM β-glycerophosphate, 15 mM p-nitrophenyl phosphate, 1 mM Na3VO4, 1 mM NaF, 1 mM phenyl phosphate, 10 µg/ml leupeptin, 10 µg/ml aprotinin, 10 µg/ml soybean trypsin inhibitor, 100 µM benzamidine, pH7.2). The homogenate was sonicated and centrifuged (16,000×g) at 4°C for 20 min. The resulting supernatant was split into two, and each portion was incubated with or without 100 µM longdaysin (final 0.1% DMSO) at 4°C for 10 min (Figure 2C). Then, 120 µl of compound 3 [50% slurry in bead buffer (50 mM Tris, 250 mM NaCl, 5 mM EDTA, 5 mM EGTA, 0.1% NP-40, 5 mM NaF, 10 µg/ml leupeptin, 10 µg/ml aprotinin, 10 µg/ml soybean trypsin inhibitor, 100 µM benzamidine, pH 7.4)] was added to the mixture and incubated at 4°C for 1 h with rotation. […]
All gel bands were subjected to LC-MS/MS analysis as described previously. Tandem MS data were analyzed using Sequest (ThermoFinnigan, San Jose, CA; Version 3.0). […]
Scaffold (version Scaffold_2_05_00, Proteome Software Inc., Portland, OR) was used to validate MS/MS based peptide and protein identifications. […] Crude differential quantitation of proteins identified in both pulldown experiments was performed by comparing the number of assigned peptides.

CKIδ = CKIδ (Homo sapiens, UniProt P48730); test: PER2-LUC degradation assay, CKIδ; assay type: cell-based; conditions: HEK293T, 0 to 20 µM, 24 h
Sequence of CKIδ (P48730 whole entry, species assumed): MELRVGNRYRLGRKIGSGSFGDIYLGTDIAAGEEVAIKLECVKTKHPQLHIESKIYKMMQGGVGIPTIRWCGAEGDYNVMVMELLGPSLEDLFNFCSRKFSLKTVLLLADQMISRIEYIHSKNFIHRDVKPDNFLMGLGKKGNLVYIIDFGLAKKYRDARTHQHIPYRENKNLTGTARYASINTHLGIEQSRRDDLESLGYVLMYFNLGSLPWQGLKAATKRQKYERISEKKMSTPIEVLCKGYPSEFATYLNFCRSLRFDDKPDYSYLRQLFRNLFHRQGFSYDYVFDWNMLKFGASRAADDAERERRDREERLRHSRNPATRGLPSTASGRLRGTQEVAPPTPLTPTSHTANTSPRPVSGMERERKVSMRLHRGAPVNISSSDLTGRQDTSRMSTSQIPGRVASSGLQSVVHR

Bmal1-dLuc U2OS cells [2] = test: Cytotoxicity in the U2OS circadian assay; assay type: cell-based, human
Description: The compound screen was done with the high-throughput circadian assay system as described previously. In brief, Bmal1-dLuc U2OS cells were suspended in the culture medium (DMEM supplemented with 10% fetal bovine serum, 0.29 mg/ml L-glutamine, 100 units/ml penicillin, and 100 µg/ml streptomycin) and plated onto 384-well white solid-bottom plates at 20 µl (2,000 cells) per well. After 2 d, 50 µl of the explant medium (DMEM supplemented with 2% B27, 10 mM HEPES, 0.38 mg/ml sodium bicarbonate, 0.29 mg/ml L-glutamine, 100 units/ml penicillin, 100 µg/ml streptomycin, 0.1 mg/ml gentamicin, and 1 mM luciferin, pH 7.2) was dispensed to each well, followed by the application of 500 nl of compounds (dissolved in DMSO; final 0.7% DMSO). The plate was covered with an optically clear film and set to luminescence monitoring system equipped with a CCD imager (ViewLux, Perkin Elmer). The luminescence was recorded every 2 h for 3–4 days. In follow-up studies, the luminescence was recorded every 100 min by using a microplate reader (Infinite M200, Tecan). The period parameter was obtained from the luminescence rhythm by curve fitting program CellulaRhythm or MultiCycle (Actimetrics), both of which gave similar results.

[3] = test system: CKIα- and CKIδ-dependent mobility-shift of PER1; test: PER1 electrophoretic mobility-shift (phosphorylation) in HEK293T cells; assay type: cell-based; conditions: 10 or 20 µM, 24 h
Description: HEK293T cells (1.25×10^6 cells) were reverse transfected on 6-well plates by Lipofectamine 2000 with 1 µg each of expression vectors for C-terminally 3XFlag-tagged clock protein (in p3XFLAG-CMV-14, Sigma) and N-terminally HA-tagged kinase (in p3XFLAG-CMV-14). For ERK2, 0.05 µg of expression vector with 0.95 µg of empty vector was used because of its efficient expression. After 24 h, the cells were collected with ice-cold PBS and suspended in 100 µl of incubation buffer [50 mM Tris, 50 mM NaCl, 2 mM EDTA, 10% glycerol, 1 mM DTT, Complete Protease Inhibitor Cocktail (Roche), Phosphatase Inhibitor Cocktail 1 and 2 (Sigma), pH 8.0]. The mixture was supplemented with NP-40 (final 1%) and incubated on ice for 15 min, followed by centrifugation (16,000×g) at 4°C for 10 min. […] The bound proteins were eluted with SDS sample buffer, separated by SDS-PAGE (4%–12% gradient gel), and analyzed by Western blotting with anti-Flag antibody (Sigma, F1804) or anti-HA antibody conjugated with HRP (Roche, 12013819001). For the analysis of PER1 electrophoretic mobility-shift, the cell extracts were separated by SDS-PAGE (3%–8% gradient gel, Invitrogen) and analyzed by Western blotting with anti-Flag antibody or anti-α-tubulin antibody (Santa Cruz Biotechnology, sc-32293). Protein concentration of each sample was measured by the Lowry method using DC protein assay (BioRad).

Bmal1-dLuc U2OS cells [4] = test: Time-course assay of endogenous PER1 abundance with parallel luminescence rhythms; assay type: cell-based, human; conditions: for Period of Bmal1-dLuc luminescence rhythm: control 0 µM 26 h; for Time of second trough of Bmal1-dLuc luminescence rhythm: control 0 µM 34 h; for Time of second peak of PER1 protein rhythm: control 0 µM 40 h
Description: Bmal1-dLuc U2OS cells were plated onto 6-well-plates (2.0×10^5 cells/well). After 2 d, the medium was replaced with 2 ml explant medium containing 0, 3, or 9 µM longdaysin. The plate was covered with film and kept at 36°C. At indicated time points, the cells were collected with ice-cold PBS and stored at −80°C. Then the cell pellets were homogenized in SDS sample buffer and analyzed by Western blotting with anti-PER1 antibody (Cosmo Bio, KAL-KI044) or anti-α-tubulin antibody. In parallel, luminescence rhythms of the cells plated on 35 mm dishes were recorded with LumiCycle luminometer at 36°C.

Q: Which “Binding of protein kinases to the affinity resin on competition” value ([1]; 100 µM free longdaysin as soluble competitor) does the source give for `CC(C)n1cnc2c(NCc3cccc(C(F)(F)F)c3)ncnc21` [Longdaysin, 9-isopropyl-N-(3-(trifluoromethyl)benzyl)-9H-purin-6-amine] here?
A: decreased binding in the presence of free longdaysin

Q: And the “Signal reduction of listed binding proteins upon competition” value ([1]; 100 µM free longdaysin, tandem MS spectra)?
A: ≥ 3 fold

Q: What about the “Effect on CKIδ-mediated PER2-LUC degradation” value (CKIδ) of the same compound?
A: inhibited the CKIδ-mediated PER2-LUC degradation in a dose-dependent manner

Q: And the Concentration showing cytotoxicity (Bmal1-dLuc U2OS cells [2])?
A: 71 µM

Q: And the “Effect on CKIα- and CKIδ-dependent mobility-shift of PER1” value [3]?
A: reduced the CKIα- and CKIδ-dependent mobility-shift of PER1

Q: And the “Period of Bmal1-dLuc luminescence rhythm” value (Bmal1-dLuc U2OS cells [4]; 3 µM)?
A: 32 h

Q: What about the “Time of second trough of Bmal1-dLuc luminescence rhythm” value (Bmal1-dLuc U2OS cells [4]; 3 µM) of the same compound?
A: 38 h

Q: And the “Time of second peak of PER1 protein rhythm” value (Bmal1-dLuc U2OS cells [4]; 3 µM)?
A: 40 to 46 h

Q: What about the “Period of Bmal1-dLuc luminescence rhythm” value (Bmal1-dLuc U2OS cells [4]; 9 µM) of the same compound?
A: 38 h

Q: And the “Time of second trough of Bmal1-dLuc luminescence rhythm” value (Bmal1-dLuc U2OS cells [4]; 9 µM)?
A: 46 h

Q: And the “Time of second peak of PER1 protein rhythm” value (Bmal1-dLuc U2OS cells [4]; 9 µM)?
A: 52 h

Q: And the “Overall protein amount of endogenous PER1” value (Bmal1-dLuc U2OS cells [4]; 3 or 9 µM versus 0 µM control)?
A: strongly up-regulated

Q: And the “PER1 mRNA level” value (Bmal1-dLuc U2OS cells [4]; 3 or 9 µM, RT-qPCR)?
A: without affecting its mRNA level
